Biological target: T1, USP5 (Homo sapiens, UniProt P45974)
T1 sequence (P45974 1-858): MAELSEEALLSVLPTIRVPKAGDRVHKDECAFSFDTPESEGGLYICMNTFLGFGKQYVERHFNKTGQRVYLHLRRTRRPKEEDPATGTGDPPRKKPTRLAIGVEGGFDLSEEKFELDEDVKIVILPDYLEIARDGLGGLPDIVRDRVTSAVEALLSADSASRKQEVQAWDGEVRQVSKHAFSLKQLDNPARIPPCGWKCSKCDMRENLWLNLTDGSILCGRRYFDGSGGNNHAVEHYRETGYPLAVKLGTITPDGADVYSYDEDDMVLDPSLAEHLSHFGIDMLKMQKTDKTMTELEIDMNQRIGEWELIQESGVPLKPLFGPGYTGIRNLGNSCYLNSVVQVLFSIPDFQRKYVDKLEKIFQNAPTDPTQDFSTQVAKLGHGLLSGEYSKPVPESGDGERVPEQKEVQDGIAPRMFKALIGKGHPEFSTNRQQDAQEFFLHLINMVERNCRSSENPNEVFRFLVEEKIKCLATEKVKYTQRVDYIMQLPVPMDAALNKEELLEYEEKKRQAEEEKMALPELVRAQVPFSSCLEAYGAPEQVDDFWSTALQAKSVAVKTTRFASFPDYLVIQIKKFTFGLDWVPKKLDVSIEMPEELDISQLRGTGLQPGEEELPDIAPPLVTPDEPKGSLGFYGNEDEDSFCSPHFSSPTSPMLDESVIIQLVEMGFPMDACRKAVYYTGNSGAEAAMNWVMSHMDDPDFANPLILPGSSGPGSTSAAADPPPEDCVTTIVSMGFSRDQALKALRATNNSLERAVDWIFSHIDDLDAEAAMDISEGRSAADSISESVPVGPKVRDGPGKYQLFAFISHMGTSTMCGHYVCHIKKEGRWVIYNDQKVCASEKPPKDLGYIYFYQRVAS
Assay: USP5 activity assay (Ub-AMC)
Type: biochemical
Details: 300 nM Ub-AMC, 300 pM enzyme
Method: USP5 was diluted in USP buffer (50 mM Tris HCl; 0.5 mM EDTA; 5 mM DTT; 0.01% Triton X-100; Bovine Serum Albumin 0.05 mg·ml^−1 pH 7.6). Compounds stocks (100 mM) were stored at −20° C. in DMSO. Compounds were tested at different concentrations: from 200 μM to 91 nM.
Reactions were performed as duplicates in Black 384 well plates (small volume microplates; Greiner; 10 μl final reaction volume). The substrate concentration for USP5 was 300 nM Ub-AMC (Boston Biochem). The concentrations of the enzyme (USP5) in specificity assays was 300 pM. The concentrations were determined in order to perform specificity assays under initial velocities at fixed substrate concentration. Compounds were pre-incubated with enzymes for 30 minutes at 25° C. Reactions were initiated by addition of substrate to the plates containing the enzymes (+/−compounds) diluted in assay buffer. Reactions were incubated for 60 minutes at 37° C. Reactions were stopped by adding acetic acid (100 mM final). Readings were performed on a Pherastar Fluorescent Reader (BMG). λ Emission 380 nm; λ Excitation=460 nm. Data (mean values+/−standard deviation) were analyzed as % of control (no compound) and plotted as percentage versus the Log of the compound concentration using GraphPad (Prism). Data were fitted to a sigmoidal model (variable slope).

With `CN1CCN(CCCNC(=O)c2ccc3c(Cl)c4c(nc3c2)CCCC4)CC1` [Example 15, 9-Chloro-5,6,7,8-tetrahydro-acridine-3-carboxylic acid [3-(4-methyl-piperazin-1-yl)-propyl]-amide] the IC50 was over 200 µM.
In the case of `CCN(CC)CCCNC(=O)c1ccc2c(Cl)c3c(nc2c1)CCCC3` [Example 10, 9-Chloro-5,6,7,8-tetrahydro-acridine-3-carboxylic acid (3-diethylamino-propyl)-amide], the IC50 is reported as over 200 µM.
`CCCCN(CC)CCNC(=O)c1ccc2c(Cl)c3c(nc2c1)CCCC3` [Example 4, 9-Chloro-5,6,7,8-tetrahydro-acridine-3-carboxylic acid [2-(butyl-ethyl-amino)-ethyl]-amide] showed an IC50 of over 200 µM.
In the case of `CCN(CC)CCNC(=O)c1ccc2c(Cl)c3c(nc2c1)CCCC3` [Example 7, 9-Chloro-5,6,7,8-tetrahydro-acridine-3-carboxylic acid (2-diethylamino-ethyl)-amide], the IC50 is reported as over 200 µM.
`CN(C)CCNC(=O)c1ccc2c(Cl)c3c(nc2c1)CCCC3` [Example 11, 9-Chloro-5,6,7,8-tetrahydro-acridine-3-carboxylic acid (2-dimethylamino-ethyl)-amide] showed an IC50 of over 200 µM.
With `CCCN(CCC)CCCNC(=O)c1ccc2c(Cl)c3c(nc2c1)CCCC3` [Example 6, 9-Chloro-5,6,7,8-tetrahydro-acridine-3-carboxylic acid (3-dipropylamino-propyl)-amide] the IC50 was over 200 µM.
Compound `CCCN1CCN(CCCNC(=O)c2ccc3c(Cl)c4c(nc3c2)CCCC4)CC1` [Example 13, 9-Chloro-5,6,7,8-tetrahydro-acridine-3-carboxylic acid [3-(4-propyl-piperazin-1-yl)-propyl]-amide] has an IC50 of over 200 µM.
In the case of `O=C(c1ccc2c(Cl)c3c(nc2c1)CCCC3)N1CCC(N2CCCCC2)CC1` [Example 16, [1,4′]Bipiperidinyl-1′-yl-(9-chloro-5,6,7,8-tetrahydro-acridin-3-yl)-methanone], the IC50 is reported as over 200 µM.
For `CN(CCCNC(=O)c1ccc2c(Cl)c3c(nc2c1)CCCC3)Cc1ccccc1` [Example 14, 9-Chloro-5,6,7,8-tetrahydro-acridine-3-carboxylic acid [3-(benzyl-methyl-amino)-propyl]-amide], the IC50 was over 200 µM.
With `CCN1CCCC1CNC(=O)c1ccc2c(Cl)c3c(nc2c1)CCCC3` (stereo not shown) [Example 2, 9-Chloro-5,6,7,8-tetrahydro-acridine-3-carboxylic acid (1-ethyl-pyrrolidin-2-ylmethyl)-amide] the IC50 was over 200 µM.
For `Cc1cccc(CN2CCC(CNC(=O)c3ccc4c(Cl)c5c(nc4c3)CCCC5)CC2)c1` [Example 1, 9-Chloro-5,6,7,8-tetrahydro-acridine-3-carboxylic acid [1-(3-methyl-benzyl)-piperidin-4-ylmethyl]-amide], the IC50 was over 200 µM.
Compound `CCCN(CCC)CCNC(=O)c1ccc2c(Cl)c3c(nc2c1)CCCC3` [Example 3, 9-Chloro-5,6,7,8-tetrahydro-acridine-3-carboxylic acid (2-dipropylamino-ethyl)-amide] has an IC50 of over 200 µM.
`O=C(c1ccc2c(Cl)c3c(nc2c1)CCCC3)N1CCCCCC1` [Example 12, Azepan-1-yl-(9-chloro-5,6,7,8-tetrahydro-acridin-3-yl)-methanone] showed an IC50 of over 200 µM.
In the case of `CC1CCCC(C)N1CCCNC(=O)c1ccc2c(Cl)c3c(nc2c1)CCCC3` (stereo not shown) [Example 9, 9-Chloro-5,6,7,8-tetrahydro-acridine-3-carboxylic acid [3-(2,6-dimethyl-piperidin-1-yl)-propyl]-amide], the IC50 is reported as over 200 µM.
`O=C(NCCCN1CCCC1)c1ccc2c(Cl)c3c(nc2c1)CCCC3` [Example 8, 9-Chloro-5,6,7,8-tetrahydro-acridine-3-carboxylic acid (3-pyrrolidin-1-yl-propyl)-amide] was tested, and the IC50 was over 200 µM.
For `CCN(CCCNC(=O)c1ccc2c(Cl)c3c(nc2c1)CCCC3)Cc1ccccc1` [Example 5, 9-Chloro-5,6,7,8-tetrahydro-acridine-3-carboxylic acid [3-(benzyl-ethyl-amino)-propyl]-amide], the IC50 was over 200 µM.

Source: patent US20110177105A1, “Novel Selective Inhibitors of Ubiquitin Specific Protease 7, the Pharmaceutical Compositions Thereof and Their Therapeutic Applications” (priority 2010, published 2011)
